Measurements reported in patent US12157745B2, “Heterocyclic systems and pharmaceutical compositions thereof” (University of Sharjah, priority 2018, dated 2024).

What was measured:
HCT116 = test: Full dose-response, survival of cancer cell line (SRB assay); format: cell-based; settings: Homo sapiens, HCT-116; colon cancer; 48 hours of drug treatment; average of three individual experiments
Source text: (§1) Dulbecco's Modified Eagles Medium (DMEM), RPMI 1640 medium and propidium iodide (PI) were purchased from Sigma Aldrich (Darmstadt, Germany). For western blot, the antibodies; c-Myc, p^53, p^21, Bax, Bid, BclxL, GAPDH, caspase-3, caspase-9, p-ATM, p-ATR, p-Chk1, p-Chk2, p-P^53, and p-H2AX along with respective mouse/rabbit secondary antibodies were purchased from Cell Signaling Technology (Danvers, MA, USA). FITC Annexin V Apoptosis kit was purchased from BD Biosciences (New Jersey, USA). All other chemicals and solvents used were of standard analytical grade. The stock solutions of SIMR compounds were made in 100% DMSO and working solutions for treatments never exceeded >1% DMSO. The cell lines were gifted from Radiobiology and Experimental Radio Oncology lab, University Cancer Center, Hamburg University, Hamburg, Germany. F180 and HCT116 cells were cultured in DMEM media while MCF-7 and SKBR3 cells were cultured in RPMI along with 10% FBS and 5% CO2 in a humidified incubator at 37° C. The cells were grown on polystyrene T-75 (75 cm^2) culture flasks and all the experiments were performed at ˜70% cell confluency.
(§2) SRB assay was performed on DU-143 and MCF-7 cells in order to find out the sub-lethal dosage (IC50) of the synthesized compounds based on reported method with minor modifications. Briefly, 1×10^4 cells were seeded in a 96-well plate overnight and were treated with different concentrations of compounds and incubated further for 48 hours. The wells which were devoid of any treatment served as controls. After the treatment time, the plates were incubated with 50% trichloroacetic acid (TCA) at 4° C. for 1 hour. The cells were then washed, dried and exposed to 1% acetic acid for short period. Two hundred microliters of 10 mMtris base solution was then added with 10 min incubation after drying the plates and the OD was read at 492 nm by using a Multiskan™ GO (Thermo Scientific, USA) microplate Spectrophotometer.

MCF7 = test: as above; format: cell-based; settings: Homo sapiens, breast cancer, 48 hours of drug treatment, average of three individual experiments
Source text: as §1, §2

SKBR3 = test: as above; format: cell-based; settings: Homo sapiens, SK-BR-3; breast cancer; 48 hours of drug treatment; average of three individual experiments
Source text: as §1, §2

MCF-7 cells = test: Cell cycle analysis (propidium iodide, flow cytometry); format: cell-based; settings: after 16, 24, 48, and 72 hours of treatment
Procedure: Apoptosis studies: The molecular effect of compound it was evaluated by investigating its apoptotic (FIG. 5) and cell cycle arresting potentials (FIGS. 6A and 6B). Compound it arrests the cells at G0/G1 phase in MCF-7 cells (>15%) with respect to control cells after 16, 24, 48, and 72 hours of treatment.
Cell cycle arresting potentials of compound it were analyzed by an already established protocol with minor modifications. In brief, 3×10^6 cells of MCF-7, SKBR3, and HCT116 were seeded and incubated overnight in a T75 cm^2 flask before treating with IC50 dose of compound it for […]. The cells which were devoid of any treatments served as controls for each group. After respective treatment hours, the cells were washed two times with PBS and fixed with ice cold ethanol (70%) overnight. The cells were then washed two times with cold PBS and 1×10^6 cells were then counted and incubated with 1 ml RNAase (100 μg/mL) for 30 min at 37° C. The cell pellet was further added with 200 μl of propidium iodide (50 μg/mL) and immediately analyzed by a flow cytometer (BD, Accuri C6).

C-Myc oncogenic protein = test: Western blot, C-Myc expression; format: cell-based; settings: all the tested cell lines
Procedure: Over-expression of this oncogene could result in tumor cell proliferation and migration and therefore its inhibition may halt tumor growth. Other pro-apoptotic (Bid, Bax, caspase-3 & -9) and anti-apoptotic (Bcl-xL) proteins were also modulated by compound it as evident from western blot analysis and as confirmed by annexin V study (FIG. 7).
(§3) The MCF-7, SKBR3 and HCT116 total cell lysate were prepared after 24 hours of treatment with compound it at IC50 and DIC50 doses by using 1× laemmli buffer. Total protein concentration was then estimated for each sample and 15-30 μg of protein lysate were loaded equally on 12% SDS-PAGE gel in order to detect various proteins expression levels. In short, the membrane was incubated with different primary antibodies (as mentioned in above section) (1:1000) overnight after blocking with 5% non-fat milk solution for 1 hour. The membrane was then re-probed with respective mouse/rabbit secondary antibodies (1:2000) for 1 h, and later developed by enhanced chemiluminescence (ECL) method by using a Chemidoc MP (BioRad, Germany).

p21 = test: Western blot, p21 expression; format: cell-based; settings: HCT116 colon cancer cells
Procedure: as §3

glutathione reductase = molecular target: T1, glutathione reductase (Homo sapiens, UniProt P00390); test: DARTS proteomic assay; format: binding; settings: dose-dependent manner, FIG. 12
T1 construct: HEK293T cells were lysed using M-PER; endogenous in cells; host or cells: HEK293T lysate
T1 sequence (P00390 44-522): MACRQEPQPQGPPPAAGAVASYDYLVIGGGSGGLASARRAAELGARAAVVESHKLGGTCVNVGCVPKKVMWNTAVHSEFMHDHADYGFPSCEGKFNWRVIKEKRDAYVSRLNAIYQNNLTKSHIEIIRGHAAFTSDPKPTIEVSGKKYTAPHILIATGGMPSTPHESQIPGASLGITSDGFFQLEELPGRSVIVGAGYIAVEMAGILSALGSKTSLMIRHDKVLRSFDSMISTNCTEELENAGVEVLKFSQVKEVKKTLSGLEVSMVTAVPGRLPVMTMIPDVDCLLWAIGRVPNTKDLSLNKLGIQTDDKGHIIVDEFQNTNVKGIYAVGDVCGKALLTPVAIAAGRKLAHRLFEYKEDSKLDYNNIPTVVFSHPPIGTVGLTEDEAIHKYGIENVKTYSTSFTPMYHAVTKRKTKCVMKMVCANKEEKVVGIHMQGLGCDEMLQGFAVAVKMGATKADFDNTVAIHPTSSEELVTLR
Procedure: (§4) The unique properties of compound it prompted an in-depth analysis to explore its potential novel targets.
(§5) A DARTS assay was used to assess the binding of compound 1t. HEK293T cells were lysed using M-PER (Thermo Scientific, Inc.) supplemented with protease and phosphatase inhibitors (Lysis buffer). 4.7 mg/mL of protein and TNC buffer (10 mM Tris, 140 mMNaCl, 5 mM CaCl2)) was added, compound it was diluted in DMSO to 3 different concentrations (0.01 μM, 0.1 μM, 1 μM) and incubated for one hour at room temperature. Trypsin (Promega) was added and incubated for 3 hours at 37° C. Thereafter, M-PER lysis buffer was added and the samples were concentrated with Microcon 10K centrifugal filters. The proteins were identified by gel electrophoresis liquid chromatography mass spectroscopy (GelLCMS).

transketolase = molecular target: T2, transketolase (Homo sapiens, UniProt P29401); test: DARTS proteomic assay; format: binding; settings: dose-dependent manner, FIG. 10
T2 construct: HEK293T cells were lysed using M-PER; endogenous in cells; host or cells: HEK293T lysate
T2 sequence (P29401 whole entry): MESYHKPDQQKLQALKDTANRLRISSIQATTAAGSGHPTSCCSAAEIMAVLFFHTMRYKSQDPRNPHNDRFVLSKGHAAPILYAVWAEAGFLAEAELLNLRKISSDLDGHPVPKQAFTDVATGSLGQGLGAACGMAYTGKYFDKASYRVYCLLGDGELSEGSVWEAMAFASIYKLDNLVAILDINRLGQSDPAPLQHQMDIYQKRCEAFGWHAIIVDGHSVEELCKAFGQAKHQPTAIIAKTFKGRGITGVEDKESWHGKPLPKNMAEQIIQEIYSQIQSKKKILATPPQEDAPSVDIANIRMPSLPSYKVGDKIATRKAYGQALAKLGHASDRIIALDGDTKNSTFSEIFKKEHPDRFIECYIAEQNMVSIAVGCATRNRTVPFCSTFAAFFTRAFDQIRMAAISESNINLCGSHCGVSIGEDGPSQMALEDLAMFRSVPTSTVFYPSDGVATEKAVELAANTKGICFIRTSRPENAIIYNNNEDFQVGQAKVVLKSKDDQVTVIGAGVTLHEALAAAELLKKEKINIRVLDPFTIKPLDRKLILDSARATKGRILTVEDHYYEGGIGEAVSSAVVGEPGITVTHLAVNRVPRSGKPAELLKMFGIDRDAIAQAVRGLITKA
Source text: as §4
As TKT reaction plays a pivotal role in pentose phosphate pathway, inhibition of TKT will suppress the pentose phosphate pathway and interrupt the synthesis of coenzymes, ATP, CoA, NAD(P)+, FAD, RNA, and DNA in cancer cells. The over-expressed TKT is reported in many cancer cells, tissues, and patients, wherein it regulates proliferation and viability. A strategy of silencing TKT has shown significant effect in reducing tumor burden in gastric cancer cells. Recent studies have shown that targeting TKT has clinical relevance in cancer therapy, as it can counteract the effect of oxidative stress, a critical factor in cancer development.
as §5, with “The proteins were identified by gel electrophoresis liquid chromatography mass spectroscopy (GelLCMS).” left out

CC1(C)[C@H]2COc3ccc4ccccc4c3[C@H]2N=C2SC(c3ccccc3)=C(c3ccccc3)N21 [Compound 1t]
IC50 (HCT116): 1500 nM
IC50 (MCF7): 1910 nM
IC50 (SKBR3): 1900 nM
Cells arrested at G0/G1 phase with respect to control cells (MCF-7 cells): > 15%
C-Myc oncogenic protein (C-Myc oncogenic protein): inhibited
Expression of p21 (p21): overexpressed
Modulation of glutathione reductase function (glutathione reductase): modulated the functions
Affinity on transketolase (transketolase): strong affinity
